Read-outs that look alike come from different tables or passages of the source.
Experiments:
[1] = human, in vivo, 200 mg
Text: The MR formulation of IMB-1018972 to be administered on Day 13 under fed conditions was 1 of the 4 MR formulations administered on Days 1, 4, 7, and 10 under fasted conditions.
The effect of food on the relative oral bioavailability of IMB-1018972 following a single oral administration was explored. This occurred in the single-dose MR part where subjects received the same dose, first under fasted conditions and then under fed conditions.

[2] = human, in vivo, 150 mg
Procedure: The blood samples were taken via an indwelling intravenous catheter or by direct venipuncture. The exact times of blood sampling were recorded in the eCRF.
The subjects were instructed to empty their bladders completely before study drug administration and at the end of each collection interval. A blank urine sample was collected within 12 hours prior to study drug administration. The exact times of urine collection and the urine weight of the entire interval (before and after addition of any urine stabilizers, if used) were recorded in the eCRF.

[3] = Phase 1 FIH study, single-dose MR part: safety and tolerability; format: in vivo, human
Procedure: (§1) AEs were recorded from (first) admission until completion of the follow-up visit. Any clinically significant observations in results of clinical laboratory, 12-lead ECGs, vital signs, or physical examinations were recorded as AEs.
(§2) A treatment-emergent AE (TEAE) was defined as any event not present prior to (the first) administration of the study drug or any event already present that worsened in either severity or frequency following exposure to the study drug.
(§3) The severity of the AEs was rated as mild, moderate, or severe; the relationship between the AEs and the study drug was indicated as none, unlikely, possibly, likely, or definitely. Adverse events assessed as possibly, likely, or definitely were considered related to the study drug; AEs assessed as none or unlikely were considered not related to the study drug.

[4] = BCS classification from solubility and permeability
Text: CV-8972 can therefore be considered as BCS Class 1 per se, but the pre-systemic metabolism to CV-8814 and possibly other metabolites may complicate and impact the actual biopharmaceutical absorption profile found in humans.

[5] = Phase 1 FIH study, multiple-dose MR part: safety and tolerability; format: in vivo, human
Procedure: as §1, §2, §3

[6] = pH stability profile of a 1 mg/mL solution of CV-8972 at 23° C.; format: physicochemical
Procedure: The pH stability profile is summarized and shown in Table 2 for a 1 mg/mL solution of CV-8972 at 23° C.
The hydrolysis proceeds via the first step shown in FIG. 1, as Nicotinic acid and CV-8814 are the only decomposition products generated. The optimal pH for solution stability appears to be around pH 5-5.1 for a 1 mg/mL solution with acid-catalyzed hydrolysis increasing at pH values less than 5.0 and base-catalyzed hydrolysis increasing above pH 5.0.

[7] = Decomposition kinetics of CV-8972 in media simulating the GI tract, 37° C., 0.2 mg/mL (HPLC); format: physicochemical
Procedure: The solution stability of CV-8972 was evaluated in multiple media currently used to simulate dissolution and stability conditions in the various sections of the GI tract. As CV-8972 will be subject to hydrolysis as it is dissolving in the GI tract, it will be important to understand these kinetics in terms of designing instant and controlled-release formulations. HPLC methods were used to perform these assessments.

[8] = Phase 1 FIH study: overall safety (vital signs, 12-lead ECG); format: in vivo, human; settings: after administration as the MR formulations, healthy subjects
Procedure: These assessments were made using an automated device. Body temperature and respiratory rate were measured subsequently.
Safety and tolerability were assessed through AEs, clinical laboratory, vital signs, ECGs, continuous cardiac monitoring (telemetry), and physical examination findings, and any other parameter that was relevant for safety assessment.

COc1ccc(CN2CCNCC2)c(OC)c1OC [trimetazidine, reference compound]
effect of food on exposure parameters Cmax, AUC0-t and AUC0-inf [1]: No evidence for an effect of food | food effect estimate for AUC0-inf (ratio of geometric means fed/fasted) [1]: 0.97 | food effect estimate for AUC0-t (ratio of geometric means fed/fasted) [1]: 0.99 | food effect estimate for Cmax (ratio of geometric means fed/fasted) [1]: 1.10 | effect of food on exposure parameters Cmax, AUC0-t and AUC0-inf [2]: No evidence for an effect of food

COc1ccc(CN2CCN(CCO)CC2)c(OC)c1OC [CV-8814, 2-[4-[(2,3,4-trimethoxyphenyl)methyl]piperazin-1-yl]ethanol]
Cmax higher under fed relative to fasted conditions [1]: approximately 42% | effect of food on exposure parameters AUC0-t and AUC0-inf [1]: No evidence for an effect of food | food effect estimate for AUC0-inf (ratio of geometric means fed/fasted) [1]: 1.16 | food effect estimate for AUC0-t (ratio of geometric means fed/fasted) [1]: 1.16 | food effect estimate for Cmax (ratio of geometric means fed/fasted) [1]: 1.42 | Cmax lower under fed relative to fasted conditions [2]: approximately 36% | effect of food on exposure parameters AUC0-t and AUC0-inf [2]: No evidence for an effect of food

COc1ccc(CN2CCN(CCOC(=O)c3cccnc3)CC2)c(OC)c1OC [CV-8972, 2-[4-[(2,3,4-trimethoxyphenyl)methyl]piperazin-1-yl]ethyl pyridine-3-carboxylate]
number of TEAEs of mild severity ([3]; of 37 TEAEs): Thirty-six | number of TEAEs of moderate severity ([3]; of 37 TEAEs): 1 | tolerability ([3]; single doses of 50 mg and 200 mg MR formulations (4-hour, 8-hour) fasted, 200 mg 8-hour MR fed, healthy subjects): well tolerated | subjects with TEAEs considered not related to the study drug ([3]; single-dose MR part): 83.3% | subjects with TEAEs considered related to the study drug ([3]; single-dose MR part): 33.3% | subjects with TEAEs, SOC gastrointestinal disorders ([3]; single-dose MR part): 33.3% | subjects with TEAEs, SOC general disorders and administration site conditions ([3]; single-dose MR part): 58.3% | subjects with TEAEs, SOC nervous system disorders ([3]; single-dose MR part): 58.3% | subjects with drug-related TEAEs of pollakiuria ([3]; single-dose MR part): 16.7% | subjects reporting TEAEs ([3]; single-dose MR part, 12 subjects): 83.3% | BCS class [4]: BCS Class 1 | subjects reporting TEAEs ([5]; 200 mg 8-hour MR formulation q12h fed, 5 days, 12 subjects): 100% | number of drug-related TEAEs of flushing (vascular disorders) ([5]; multiple-dose MR part): 2 | subjects with TEAEs considered not related to the study drug ([5]; multiple-dose MR part): 75% | subjects with TEAEs considered related to the study drug ([5]; multiple-dose MR part): 58.3% | subjects with TEAEs, SOC gastrointestinal disorders ([5]; multiple-dose MR part): 41.7% | subjects with TEAEs, SOC general disorders and administration site conditions ([5]; multiple-dose MR part): 33.3% | subjects with TEAEs, SOC musculoskeletal and connective tissue disorders ([5]; multiple-dose MR part): 33.3% | subjects with TEAEs, SOC nervous system disorders ([5]; multiple-dose MR part): 58.3% | subjects with TEAEs, SOC renal and urinary disorders (pollakiuria) ([5]; multiple-dose MR part): 33.3% | subjects with drug-related TEAEs of flushing (vascular disorders) ([5]; multiple-dose MR part): 16.7% | subjects with drug-related TEAEs of pollakiuria ([5]; multiple-dose MR part): 33.3% | subjects with drug-related TEAEs, nervous system disorders ([5]; multiple-dose MR part): 16.7% | half-life at 1 mg/mL ([6]; 20 mM ammonium acetate buffer, pH 5.05, 20 mM Am. Acetate): 658 h | half-life at 1 mg/mL ([6]; 20 mM phosphate buffer, pH 3.52, 20 mM Phos): 254 h | half-life at 1 mg/mL ([6]; 20 mM phosphate buffer, pH 6.5, 20 mM Phos): 61.9 h | half-life at 1 mg/mL ([6]; 20 mM phosphate buffer, pH 6.88, 20 mM Phos): 33.6 h | 1st order Kobs ([6]; pH 2.74, Water): 0.00516 hr − 1 | half-life at 1 mg/mL ([6]; pH 2.74, Water): 134 h | 1st order Kobs ([6]; pH 3.52, 20 mM Phos): 0.00273 hr − 1 | 1st order Kobs ([6]; pH 5.05, 20 mM Am. Acetate): 0.00105 hr − 1 | 1st order Kobs ([6]; pH 5.64, 20 mM Phos): 0.00248 hr − 1 | 1st order Kobs ([6]; pH 6.5, 20 mM Phos): 0.01119 hr − 1 | 1st order Kobs ([6]; pH 6.88, 20 mM Phos): 0.02064 hr − 1 | half-life at 1 mg/mL ([6]; phosphate buffer, pH 5.64, 20 mM Phos): 280 h | half-life at 0.2 mg/mL ([7]; 0.1M HCl, pH 1, 0.1M HCl, pH 1.0, no surfactants): 3.13 h | half-life at 0.2 mg/mL ([7]; FaSSGF, pH 1.6, FaSSGF, pH 1.6): 48.5 h | half-life at 0.2 mg/mL ([7]; FaSSIF, pH 6.5, FaSSIF, pH 6.5): 13.5 h | half-life at 0.2 mg/mL ([7]; FeSSIF (medium simulating the GI tract), pH 5.8, FeSSIF, pH 5.8): 99.6 h | half-life at 0.2 mg/mL ([7]; pH 6, BiCarb adj (0.1M HCl neutralized with sodium bicarbonate), pH 6-8.2): 1.52 h | hemodynamic changes and QTc-interval [8]: no findings of hemodynamic changes, nor changes in the QTc-interval

Reference: US20210401834A1 (IMBRIA PHARMACEUTICALS, INC., priority 2020, published 2021)
